pIC50: −log10 of the molar value.
What was measured:
[1] = biological target: Histone deacetylase 1 (Homo sapiens, UniProt Q13547); assay: Inhibition of recombinant full length C-terminal FLAG/His-tagged human HDAC1 expressed in baculovirus infected Sf9 cells using Z-Lys(Ac)-AMC as substrate incubated for 90 mins followed by trypsin addition and measured after 30 mins by fluorescence based assay
[2] = biological target: T1, Protein deacetylase HDAC6 (Homo sapiens, UniProt Q9UBN7); assay: Inhibition of recombinant full length N-terminal GST-tagged human HDAC6 expressed in baculovirus infected Sf9 cells using Z-Lys(Ac)-AMC as substrate incubated for 90 mins followed by trypsin addition and measured after 30 mins by fluorescence based assay
T1 sequence (Q9UBN7 whole entry): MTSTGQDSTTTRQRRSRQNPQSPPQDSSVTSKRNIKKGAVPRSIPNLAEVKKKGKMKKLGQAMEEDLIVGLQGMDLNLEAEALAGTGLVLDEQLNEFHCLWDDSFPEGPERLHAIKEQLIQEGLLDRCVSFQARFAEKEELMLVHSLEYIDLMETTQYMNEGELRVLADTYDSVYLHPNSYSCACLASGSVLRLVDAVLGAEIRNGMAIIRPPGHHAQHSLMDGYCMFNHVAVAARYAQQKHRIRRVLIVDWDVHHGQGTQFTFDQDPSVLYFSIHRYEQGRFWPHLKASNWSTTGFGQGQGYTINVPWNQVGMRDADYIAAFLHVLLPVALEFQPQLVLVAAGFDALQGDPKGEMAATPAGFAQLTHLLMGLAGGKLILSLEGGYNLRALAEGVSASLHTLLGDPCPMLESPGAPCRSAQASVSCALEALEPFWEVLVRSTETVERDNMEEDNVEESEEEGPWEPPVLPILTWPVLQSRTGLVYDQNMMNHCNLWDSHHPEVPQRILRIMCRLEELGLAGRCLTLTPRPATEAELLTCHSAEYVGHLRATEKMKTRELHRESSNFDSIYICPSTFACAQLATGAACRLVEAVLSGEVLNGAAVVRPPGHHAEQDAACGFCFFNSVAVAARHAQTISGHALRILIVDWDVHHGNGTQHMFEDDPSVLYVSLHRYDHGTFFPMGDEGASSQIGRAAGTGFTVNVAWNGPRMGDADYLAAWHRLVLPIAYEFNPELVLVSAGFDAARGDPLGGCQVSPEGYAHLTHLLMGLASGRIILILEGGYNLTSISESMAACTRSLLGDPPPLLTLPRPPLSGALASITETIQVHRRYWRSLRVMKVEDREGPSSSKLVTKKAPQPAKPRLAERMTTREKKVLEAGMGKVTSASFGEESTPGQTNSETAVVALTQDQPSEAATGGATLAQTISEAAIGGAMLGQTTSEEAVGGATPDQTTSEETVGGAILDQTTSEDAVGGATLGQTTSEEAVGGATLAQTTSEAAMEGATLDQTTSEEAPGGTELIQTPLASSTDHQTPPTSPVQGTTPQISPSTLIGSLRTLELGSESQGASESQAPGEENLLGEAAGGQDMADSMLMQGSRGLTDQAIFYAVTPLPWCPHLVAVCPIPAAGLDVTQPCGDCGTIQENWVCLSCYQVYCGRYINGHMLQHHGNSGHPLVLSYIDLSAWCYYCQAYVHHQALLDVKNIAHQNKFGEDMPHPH

[3] = test system: CHP-134; assay: Antiproliferative activity against human CHP134 cells assessed as reduction in cell viability incubated for 72 hrs by cell-titer Glo assay; format: functional, cell-based; settings: CHP-134, 72 h
[4] = test system: IMR-32; assay: Antiproliferative activity against human IMR32 cells assessed as reduction in cell viability incubated for 72 hrs by cell-titer Glo assay; format: functional, cell-based; settings: IMR-32, 72 h
[5] = test system: SK-N-AS; assay: Antiproliferative activity against human SK-N-AS cells assessed as reduction in cell viability incubated for 72 hrs by cell-titer Glo assay; format: functional, cell-based
[6] = test system: NB1; assay: Antiproliferative activity against human NB-1 cells assessed as reduction in cell viability incubated for 72 hrs by cell-titer Glo assay; format: functional, cell-based; settings: NB1, 72 h
[7] = test system: G55T2; assay: Antiproliferative activity against human G55T2 cells assessed as reduction in cell viability incubated for 72 hrs by WST-8 assay; format: functional, cell-based; settings: G55T2, 72 h
[8] = test system: G55T2; assay: Cell cycle arrest in human G55T2 cells assessed as accumulation in G0/G1 phase at 1 uM incubated for 72 hrs by propidium iodide based flow cytometry (reference value: 49.9 %); format: functional
[9] = test system: G55T2; assay: Cell cycle arrest in human G55T2 cells assessed as accumulation in S phase at 1 uM incubated for 72 hrs by propidium iodide based flow cytometry (reference value: 14.7 %); format: functional
[10] = test system: G55T2; assay: Cell cycle arrest in human G55T2 cells assessed as accumulation in G2/M phase at 1 uM incubated for 72 hrs by propidium iodide based flow cytometry (reference value: 26.8 %); format: functional
[11] = test system: G55T2; assay: Cell cycle arrest in human G55T2 cells assessed as accumulation in subG0 phase at 1 uM incubated for 72 hrs by propidium iodide based flow cytometry (reference value: 4.5 %); format: functional
[12] = test system: G55T2; assay: Cell cycle arrest in human G55T2 cells assessed as accumulation in G0/G1 phase at 3 uM incubated for 72 hrs by propidium iodide based flow cytometry (reference value: 49.9 %); format: functional
[13] = test system: G55T2; assay: Cell cycle arrest in human G55T2 cells assessed as accumulation in S phase at 3 uM incubated for 72 hrs by propidium iodide based flow cytometry (reference value: 14.7 %); format: functional
[14] = test system: G55T2; assay: Cell cycle arrest in human G55T2 cells assessed as accumulation in G2/M phase at 3 uM incubated for 72 hrs by propidium iodide based flow cytometry (reference value: 26.8 %); format: functional
[15] = test system: G55T2; assay: Cell cycle arrest in human G55T2 cells assessed as accumulation in subG0 phase at 3 uM incubated for 72 hrs by propidium iodide based flow cytometry (reference value: 4.5 %); format: functional

Sequence of Histone deacetylase 1 (Q13547 whole entry): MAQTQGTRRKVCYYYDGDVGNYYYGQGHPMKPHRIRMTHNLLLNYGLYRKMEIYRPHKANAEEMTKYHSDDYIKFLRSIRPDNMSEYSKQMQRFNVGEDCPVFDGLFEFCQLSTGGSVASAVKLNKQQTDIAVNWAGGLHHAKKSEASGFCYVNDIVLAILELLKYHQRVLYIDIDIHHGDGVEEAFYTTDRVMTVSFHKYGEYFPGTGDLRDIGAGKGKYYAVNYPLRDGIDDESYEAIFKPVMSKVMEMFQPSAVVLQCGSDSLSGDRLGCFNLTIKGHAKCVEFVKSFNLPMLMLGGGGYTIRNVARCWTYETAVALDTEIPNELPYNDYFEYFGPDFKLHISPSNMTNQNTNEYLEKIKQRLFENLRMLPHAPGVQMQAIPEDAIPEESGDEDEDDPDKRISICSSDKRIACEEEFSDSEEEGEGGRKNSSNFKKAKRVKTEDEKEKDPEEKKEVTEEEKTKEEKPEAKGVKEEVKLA

Work on `Cc1ccc(NC(=O)CCN(Cc2ccc(C(=O)NO)cc2)C(=O)c2ccccc2)cc1` yielded a pIC50 [1] of 7.56, a pIC50 [2] of 7.97 and a pIC50 [3] of 5.94. For the same molecule, the pIC50 [4] was 6.26, the pIC50 [5] was 6.21 and the pIC50 [6] was 5.83. For the same molecule, the pIC50 [7] was 6.27.

Molecule `Cc1ccc(CNC(=O)CCN(Cc2ccc(C(=O)NO)cc2)C(=O)c2ccc(N(C)C)cc2)cc1` has a pIC50 [1] of 7.56, a pIC50 [2] of 7.84 and a pIC50 [3] of 6.38. The pIC50 [4] was 6.59, the pIC50 [5] was 6.47 and the pIC50 [6] was 6.15. The pIC50 [7] was 6.37.

For `COc1cc(OC)cc(C(=O)N(CCC(=O)NCc2ccccc2)Cc2ccc(C(=O)NO)cc2)c1`, the pIC50 [1] was 6.83, the pIC50 [2] was 7.59 and the pIC50 [3] was 4.91. The pIC50 [4] was 5.22, the pIC50 [5] was 5.02 and the pIC50 [6] was 4.87. For the same molecule, the pIC50 [7] was 4.83.

Molecule `Cc1ccc(C(=O)N(CCC(=O)NCc2ccccc2)Cc2ccc(C(=O)NO)cc2)cc1` has a pIC50 [1] of 7.79, a pIC50 [2] of 7.78 and a pIC50 [3] of 5.96. The pIC50 [4] was 6.20, the pIC50 [5] was 6.04 and the pIC50 [6] was 5.79. It also gave a pIC50 [7] of 6.16.

`Cc1cc(C)cc(C(=O)N(CCC(=O)NCc2ccccc2)Cc2ccc(C(=O)NO)cc2)c1` showed a pIC50 [1] of 6.89, a pIC50 [2] of 7.69 and a pIC50 [3] of 5.69. For the same molecule, the pIC50 [4] was 5.86, the pIC50 [5] was 5.73 and the pIC50 [6] was 5.41. The pIC50 [7] was 5.37.

Work on `COc1ccc(C(=O)N(CCC(=O)NCc2ccccc2)Cc2ccc(C(=O)NO)cc2)cc1` yielded a pIC50 [1] of 7.38, a pIC50 [2] of 7.60 and a pIC50 [3] of 5.72. The pIC50 [4] was 5.96, the pIC50 [5] was 5.76 and the pIC50 [6] was 5.60. It also gave a pIC50 [7] of 5.46.

Work on `O=C(NO)c1ccc(CC(=O)N(CCO)c2ccccc2)cc1` yielded a pIC50 [1] of 5.68.

Molecule `O=C(CCN(Cc1ccc(C(=O)NO)cc1)C(=O)c1ccccc1)NCc1ccccc1` has a pIC50 [1] of 6.87, a pIC50 [2] of 7.90 and a pIC50 [3] of 5.33. For the same molecule, the pIC50 [4] was 5.63, the pIC50 [5] was 5.48 and the pIC50 [6] was 5.18. For the same molecule, the pIC50 [7] was 5.23.

Molecule `Cc1ccc(NC(=O)CCN(Cc2ccc(C(=O)NO)cc2)C(=O)c2cc(C)cc(C)c2)cc1` has a pIC50 [1] of 7.37, a pIC50 [2] of 7.51 and a pIC50 [3] of 6.42. It also gave a pIC50 [4] of 6.68, a pIC50 [5] of 6.66 and a pIC50 [6] of 6.17. It also gave a pIC50 [7] of 6.43, an Activity [8] of 52.3% and an Activity [9] of 13.2%. For the same molecule, the Activity [10] was 29.1%, the Activity [11] was 3.5% and the Activity [12] was 30.2%. For the same molecule, the Activity [13] was 9.8%, the Activity [14] was 31.1% and the Activity [15] was 23.3%.

`O=C(CCCCCCC(=O)Nc1ccccc1)NO` [VORINOSTAT] showed an Activity [12] of 31.3%, an Activity [13] of 8.1% and an Activity [14] of 28.9%. For the same molecule, the Activity [15] was 24.8%.

For `CN(C)c1ccc(C(=O)N(CCC(=O)NCc2ccc(Cl)cc2)Cc2ccc(C(=O)NO)cc2)cc1`, the pIC50 [1] was 7.67, the pIC50 [2] was 8.00 and the pIC50 [3] was 6.21. The pIC50 [4] was 6.51, the pIC50 [5] was 6.41 and the pIC50 [6] was 6.07. The pIC50 [7] was 6.34.

Molecule `CN(C)c1ccc(C(=O)N(CCC(=O)NCc2ccccc2)Cc2ccc(C(=O)NO)cc2)cc1` has a pIC50 [1] of 7.83, a pIC50 [2] of 7.83 and a pIC50 [3] of 5.94. For the same molecule, the pIC50 [4] was 6.08, the pIC50 [5] was 5.85 and the pIC50 [6] was 5.76. It also gave a pIC50 [7] of 5.94.

`Cc1ccc(NC(=O)CCN(Cc2ccc(C(=O)NO)cc2)C(=O)c2ccc(N(C)C)cc2)cc1` gave a pIC50 [1] of 7.89, a pIC50 [2] of 7.71 and a pIC50 [3] of 6.27. It also gave a pIC50 [4] of 6.52, a pIC50 [5] of 6.40 and a pIC50 [6] of 6.18. It also gave a pIC50 [7] of 6.48.

From ChEMBL document CHEMBL4334421, “Design, synthesis and biological evaluation of β-peptoid-capped HDAC inhibitors with anti-neuroblastoma and anti-glioblastoma activity” (Medchemcomm, 2019)
